Test results published in the supplement of paper PMC6045584.
± gives the standard deviation of the averaged measurements.

Tests used:
TIOGUANINE [1] = compound: T1, Nc1nc2[nH]cnc2c(=S)[nH]1 [TIOGUANINE]; test: area under dose-response curve of surviving fraction (unscaled, Aref=0) (surviving fraction x log10(nM)); higher = more resistant; settings: exposure time: 5 days; dose range 0.5-1000 nM
Summary of the method: (§1)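 Each tumour cell line was screened three times in 384-well plates, receiving eight inhibitor concentrations from 0.5 to 1000 nM for five days. CellTiter-Glo luminescence gave viability, normalised to DMSO-only wells. Using the drc R package, surviving fractions were fitted with 3-parameter logistic dose-response curves, and the unscaled activity area over log10 dose (Aref = 0) was taken as the area under the curve.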

BI-2536 [2] = compound: T2, CC[C@@H]1C(=O)N(C)c2cnc(Nc3ccc(C(=O)NC4CCN(C)CC4)cc3OC)nc2N1C1CCCC1 [BI-2536]; test: as above; settings: exposure time: 5 days; dose range 0.5-1000 nM
Summary of the method: as §1

[3] = compound: Cn1cc(C2=Nc3cc(NC(=O)C(N)C4CCCCC4)cc4c3C2=CNNC4=O)cn1; test: as above; settings: exposure time: 5 days; dose range 0.5-1000 nM
Summary of the method: as §1

MDV3100 [4] = compound: T3, CNC(=O)c1ccc(N2C(=S)N(c3ccc(C#N)c(C(F)(F)F)c3)C(=O)C2(C)C)cc1F [MDV3100]; test: as above; settings: exposure time: 5 days; dose range 0.5-1000 nM
Summary of the method: as §1

SAPACITABINE [5] = compound: T4, CCCCCCCCCCCCCCCC(=O)Nc1ccn([C@@H]2O[C@H](CO)[C@@H](O)[C@@H]2C#N)c(=O)n1 [SAPACITABINE]; test: as above; settings: exposure time: 5 days; dose range 0.5-1000 nM
Summary of the method: as §1

AFATINIB [6] = compound: T5, CN(C)C/C=C/C(=O)Nc1cc2c(Nc3ccc(F)c(Cl)c3)ncnc2cc1O[C@H]1CCOC1 [AFATINIB]; test: as above; settings: exposure time: 5 days; dose range 0.5-1000 nM
Summary of the method: as §1

CANERTINIB [7] = compound: T6, C=CC(=O)Nc1cc2c(Nc3ccc(F)c(Cl)c3)ncnc2cc1OCCCN1CCOCC1 [CANERTINIB]; test: as above; settings: exposure time: 5 days; dose range 0.5-1000 nM
Summary of the method: as §1

SNX-5422 [8] = compound: T7, CC1(C)CC(=O)c2c(C(F)(F)F)nn(-c3ccc(C(N)=O)c(N[C@H]4CC[C@H](OC(=O)CN)CC4)c3)c2C1 [SNX-5422]; test: as above; settings: exposure time: 5 days; dose range 0.5-1000 nM
Summary of the method: as §1

TIOGUANINE [9] = compound: T1, TIOGUANINE; test: surviving fraction relative to DMSO-only wells; higher = less growth inhibition; settings: exposure time: 5 days
Summary of the method: (§2)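 Each tumour cell line was screened three times, and only lines with replicate Pearson r >0.7 and median Z' >0.3 were kept. Cells in log phase were seeded at 250–500 per well in 384-well plates, left 24 hours, then exposed continuously for five days to inhibitors at 0.5, 1, 5, 10, 50, 100, 500 and 1000 nM. Viability was read as CellTiter-Glo luminescence, with surviving fraction normalised to the median of DMSO-only wells.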

BI-2536 [10] = compound: T2, BI-2536; test: as above; settings: exposure time: 5 days
Summary of the method: as §2

[11] = compound: Cn1cc(C2=Nc3cc(NC(=O)C(N)C4CCCCC4)cc4c3C2=CNNC4=O)cn1; test: as above; settings: exposure time: 5 days
Summary of the method: as §2

MDV3100 [12] = compound: T3, MDV3100; test: as above; settings: exposure time: 5 days
Summary of the method: as §2

SAPACITABINE [13] = compound: T4, SAPACITABINE; test: as above; settings: exposure time: 5 days
Summary of the method: as §2

AFATINIB [14] = compound: T5, AFATINIB; test: as above; settings: exposure time: 5 days
Summary of the method: as §2

CANERTINIB [15] = compound: T6, CANERTINIB; test: as above; settings: exposure time: 5 days
Summary of the method: as §2

SNX-5422 [16] = compound: T7, SNX-5422; test: as above; settings: exposure time: 5 days
Summary of the method: as §2

With SNU475 LIVER as the test system, how does the “area under dose-response curve” value (TIOGUANINE [1]) read?
Its value is 3.14.

And the “area under dose-response curve” value (BI-2536 [2])?
Its value is 1.41.

And the “area under dose-response curve” value [3]?
The value was 3.

What about the “area under dose-response curve” value (MDV3100 [4]) of the same test system?
The value was 2.8.

What about the “area under dose-response curve” value (SAPACITABINE [5]) of the same test system?
The value was 2.23.

And the “area under dose-response curve” value (AFATINIB [6])?
Its value is 2.99.

And the “area under dose-response curve” value (CANERTINIB [7])?
The value was 2.91.

And the “area under dose-response curve” value (SNX-5422 [8])?
The value was 2.29.

And the surviving fraction (TIOGUANINE [9]; 0.5 nM)?
The surviving fraction was 0.949 ± 0.025.

What about the surviving fraction (TIOGUANINE [9]; 1 nM) of the same test system?
The surviving fraction was 0.963 ± 0.02.

And the surviving fraction (TIOGUANINE [9]; 5 nM)?
The surviving fraction was 0.961 ± 0.036.

And the surviving fraction (TIOGUANINE [9]; 10 nM)?
Its surviving fraction is 0.957 ± 0.028.

What about the surviving fraction (TIOGUANINE [9]; 50 nM) of the same test system?
The surviving fraction was 0.966 ± 0.099.

And the surviving fraction (TIOGUANINE [9]; 100 nM)?
Its surviving fraction is 0.992 ± 0.025.

And the surviving fraction (TIOGUANINE [9]; 500 nM)?
Its surviving fraction is 0.899 ± 0.054.

And the surviving fraction (TIOGUANINE [9]; 1000 nM)?
The surviving fraction was 0.916 ± 0.012.

What about the surviving fraction (BI-2536 [10]; 0.5 nM) of the same test system?
Its surviving fraction is 1.03 ± 0.05.

And the surviving fraction (BI-2536 [10]; 1 nM)?
The surviving fraction was 1.01 ± 0.065.

What about the surviving fraction (BI-2536 [10]; 5 nM) of the same test system?
The surviving fraction was 0.587 ± 0.06.

And the surviving fraction (BI-2536 [10]; 10 nM)?
Its surviving fraction is 0.255 ± 0.026.

And the surviving fraction (BI-2536 [10]; 50 nM)?
Its surviving fraction is 0.2 ± 0.033.

And the surviving fraction (BI-2536 [10]; 100 nM)?
The surviving fraction was 0.16 ± 0.0044.

What about the surviving fraction (BI-2536 [10]; 500 nM) of the same test system?
The surviving fraction was 0.169 ± 0.0055.

And the surviving fraction (BI-2536 [10]; 1000 nM)?
Its surviving fraction is 0.174 ± 0.018.

And the surviving fraction ([11]; 0.5 nM)?
Its surviving fraction is 0.965 ± 0.028.

What about the surviving fraction ([11]; 1 nM) of the same test system?
Its surviving fraction is 0.967 ± 0.053.

And the surviving fraction ([11]; 5 nM)?
The surviving fraction was 0.987 ± 0.013.

And the surviving fraction ([11]; 10 nM)?
Its surviving fraction is 1.01 ± 0.02.

What about the surviving fraction ([11]; 50 nM) of the same test system?
Its surviving fraction is 0.892 ± 0.038.

And the surviving fraction ([11]; 100 nM)?
Its surviving fraction is 0.898 ± 0.046.

What about the surviving fraction ([11]; 500 nM) of the same test system?
Its surviving fraction is 0.731 ± 0.034.

What about the surviving fraction ([11]; 1000 nM) of the same test system?
Its surviving fraction is 0.514 ± 0.082.

And the surviving fraction (MDV3100 [12]; 0.5 nM)?
The surviving fraction was 1.03 ± 0.034.

And the surviving fraction (MDV3100 [12]; 1 nM)?
Its surviving fraction is 0.903 ± 0.024.

What about the surviving fraction (MDV3100 [12]; 5 nM) of the same test system?
Its surviving fraction is 1 ± 0.039.

And the surviving fraction (MDV3100 [12]; 10 nM)?
The surviving fraction was 0.438 ± 0.011.

What about the surviving fraction (MDV3100 [12]; 50 nM) of the same test system?
The surviving fraction was 1.01 ± 0.018.

And the surviving fraction (MDV3100 [12]; 100 nM)?
The surviving fraction was 0.902 ± 0.016.

And the surviving fraction (MDV3100 [12]; 500 nM)?
Its surviving fraction is 0.974 ± 0.014.

What about the surviving fraction (MDV3100 [12]; 1000 nM) of the same test system?
The surviving fraction was 0.516 ± 0.02.

And the surviving fraction (SAPACITABINE [13]; 0.5 nM)?
Its surviving fraction is 0.888 ± 0.063.

And the surviving fraction (SAPACITABINE [13]; 1 nM)?
Its surviving fraction is 0.726 ± 0.057.

What about the surviving fraction (SAPACITABINE [13]; 5 nM) of the same test system?
Its surviving fraction is 0.83 ± 0.03.

And the surviving fraction (SAPACITABINE [13]; 10 nM)?
The surviving fraction was 0.365 ± 0.03.

And the surviving fraction (SAPACITABINE [13]; 50 nM)?
The surviving fraction was 0.962 ± 0.057.

And the surviving fraction (SAPACITABINE [13]; 100 nM)?
Its surviving fraction is 0.745 ± 0.025.

And the surviving fraction (SAPACITABINE [13]; 500 nM)?
Its surviving fraction is 0.573 ± 0.016.

What about the surviving fraction (SAPACITABINE [13]; 1000 nM) of the same test system?
The surviving fraction was 0.291 ± 0.015.

What about the surviving fraction (AFATINIB [14]; 0.5 nM) of the same test system?
The surviving fraction was 1.01 ± 0.03.

And the surviving fraction (AFATINIB [14]; 1 nM)?
The surviving fraction was 0.985 ± 0.029.

What about the surviving fraction (AFATINIB [14]; 5 nM) of the same test system?
The surviving fraction was 0.953 ± 0.062.

What about the surviving fraction (AFATINIB [14]; 10 nM) of the same test system?
Its surviving fraction is 0.937 ± 0.028.

And the surviving fraction (AFATINIB [14]; 50 nM)?
The surviving fraction was 0.922 ± 0.024.

What about the surviving fraction (AFATINIB [14]; 100 nM) of the same test system?
Its surviving fraction is 0.893 ± 0.054.

And the surviving fraction (AFATINIB [14]; 500 nM)?
Its surviving fraction is 0.717 ± 0.012.

And the surviving fraction (AFATINIB [14]; 1000 nM)?
The surviving fraction was 0.432 ± 0.027.

And the surviving fraction (CANERTINIB [15]; 0.5 nM)?
The surviving fraction was 0.917 ± 0.0099.

What about the surviving fraction (CANERTINIB [15]; 1 nM) of the same test system?
Its surviving fraction is 0.8847 ± 0.0057.

And the surviving fraction (CANERTINIB [15]; 5 nM)?
The surviving fraction was 0.88 ± 0.051.

What about the surviving fraction (CANERTINIB [15]; 10 nM) of the same test system?
Its surviving fraction is 0.85 ± 0.041.

And the surviving fraction (CANERTINIB [15]; 50 nM)?
The surviving fraction was 0.9373 ± 0.0055.

What about the surviving fraction (CANERTINIB [15]; 100 nM) of the same test system?
Its surviving fraction is 0.908 ± 0.024.

What about the surviving fraction (CANERTINIB [15]; 500 nM) of the same test system?
The surviving fraction was 0.869 ± 0.022.

And the surviving fraction (CANERTINIB [15]; 1000 nM)?
The surviving fraction was 0.808 ± 0.058.

And the surviving fraction (SNX-5422 [16]; 0.5 nM)?
Its surviving fraction is 1.024 ± 0.0066.

What about the surviving fraction (SNX-5422 [16]; 1 nM) of the same test system?
The surviving fraction was 1.05 ± 0.045.

And the surviving fraction (SNX-5422 [16]; 5 nM)?
Its surviving fraction is 1.06 ± 0.016.

What about the surviving fraction (SNX-5422 [16]; 10 nM) of the same test system?
Its surviving fraction is 1.01 ± 0.068.

What about the surviving fraction (SNX-5422 [16]; 50 nM) of the same test system?
The surviving fraction was 0.565 ± 0.033.

What about the surviving fraction (SNX-5422 [16]; 100 nM) of the same test system?
Its surviving fraction is 0.358 ± 0.011.

What about the surviving fraction (SNX-5422 [16]; 500 nM) of the same test system?
The surviving fraction was 0.245 ± 0.014.

What about the surviving fraction (SNX-5422 [16]; 1000 nM) of the same test system?
Its surviving fraction is 0.234 ± 0.012.
